Reference: patent publication US20260242822A1, “METHODS AND KITS FOR THE IMPROVED FERMENTATIVE PRODUCTION OF A RECOMBINANT VIRUS” (priority 2022, published 2026)

Experiments:
[1] = test system: HEK293 cells (CL1); assay: rAAV8 yield in suspension HEK293 (CL1) shaker flasks, capsid particle AAV8 ELISA
From the text: The commercially available enzyme-linked immunosorbent assay (ELISA; Progen AAV8 titration ELISA kit, cat. No. PRAAV8) uses a monoclonal antibody (ADK8) specific for a conformational epitope on assembled AAV8 capsids. This plate-immobilized antibody captures rAAV-8 particles from the specimen. Captured particles are then detected by the binding of biotinylated anti-AAV8 ADK8 since epitope targeted is repeatedly expressed on the assembled AAV8 capsid. Streptavidin peroxidase and a peroxidase substrate is then used for measuring bound anti-AAV8 and thus the concentration of AAV8 capsid. The color reaction was measured photometrically at 450 nm. The kit contains an rAAV2/8 particle preparation as calibration standard with a labelled rAAV8 particle concentration.

[2] = test system: Adherent HEK293 cells; assay: rAAV yield in adherent HEK293 cells in T75 flasks, ddPCR; assay type: cell-based, human; conditions: supernatant, vs control condition (100%)
Description: (§1) Adherent HEK293 cell line (Agilent Technologies CAT #240073, Lot #0006218516) was cultivated in T75 flasks in a total volume of 23 mL with DMEM media containing 2% FCS. The cultivation of the cells was performed in an incubator at +37° C. and 5% CO2. 1 mM Ruxolitnib stock solution was prepared by dissolving the solid white powder in DMSO according to the manufacturer's instructions before use and stored at −20° C. During the last passage before transfection Ruxolitinib was added to the cell culture at defined concentrations. Every condition was tested in duplicates. At transfection day a confluence range of 60 to 80% was achieved.
(§2) The statistical mean of the control condition was calculated as 100%.

[3] = test system: Adherent HEK293 cells; assay: rAAV yield in adherent HEK293 cells in T75 flasks, capsid particle AAV8 ELISA; assay type: cell-based, human; conditions: supernatant, vs control condition
Description: as §1, §2

[4] = test system: suspension HEK293 (CL1); assay: Lentivirus production in suspension HEK293 (CL1) shake flasks, p24 ELISA; assay type: cell-based, human; conditions: vs untreated control (100%)
Description: Transient transfection of HEK293 to produce Lentivirus was performed with pALDI-Lenti system (Aldevron). […]. The transfection mix consisted of the four-plasmid system, DMEM media and PEI as transfection reagent. The ratio between the used plasmids was 1:1:1:1 and the plasmid DNA PEI ration was 1:3.
The ELISA quantifies structural HIV1 p24 capsid protein amount in cell culture and supernatant samples. It is a quantitative sandwich ELISA method. For titering lentiviral expression HIV1 p24 ELISA Kit ab218268 was used. To discriminate between viral p24 produced by lentivirus and associated p24 produced by HEK293 cells Cell Biolabs Quick Titer™ Kit including LV-Origine/TR30021/Lot #134641F and the Cell Biolabs Reference Standard #310809 was used. The virus pulldown technology ensures detection of lentiviral associated p24 only.
The suspension HEK293 (CL1) experiments with a four-plasmid lentiviral transfection were performed in shake flasks with the same conditions as shown in Table 2. The statistical mean of the control condition was evaluated as 100%.

[5] = test system: HEK293 cells; assay: rAAV yield in 10 L bioreactor fermentation of HEK293 cells, ddPCR; assay type: cell-based, human; conditions: supernatant
From the text: (§3) To test the effect of IFN inhibitor on the rAAV yield in large-scale bioreactor fermentation of HEK293 cells, 10 L bioreactors have been used. The results are shown in FIG. 3A (determination by capsid particlerAAV8 ELISA) and FIG. 3B (determination by ddPCR).

[6] = test system: HEK293 cells; assay: rAAV yield in 10 L bioreactor fermentation of HEK293 cells, rAAV8 capsid particle ELISA; assay type: cell-based, human; conditions: supernatant, vs negative control without inhibitor
From the text: as §3

[7] = test system: HEK293 cells (CL1); assay: rAAV8 yield in suspension HEK293 (CL1) shaker flasks, vector genome ddPCR

For `N#CC[C@H](C1CCCC1)n1cc(-c2ncnc3[nH]ccc23)cn1` [Ruxolitinib, (3R)-3-cyclopentyl-3-[4-(7H-pyrrolo[2,3-d]pyrimidin-4-yl)pyrazol-1-yl]propanenitrile], the “effect on rAAV yield at higher concentrations” value ([1]; concentrations higher than 10 μM) was “reduction of the effect”, the “increase of rAAV yield as determined in cell suspension” value ([1]; optimal concentration 5 μM, vs yield in absence of inhibitor) was “about 3 fold” and the “vg yield increase (ddPCR)” value ([2]; 1 μM inhibitor) was 48%. For the same molecule, the “vg yield increase (ddPCR)” value ([2]; 5 μM inhibitor) was 38.5%, the “vg yield increase (ddPCR)” value ([2]; 10 μM inhibitor) was 31% and the “capsid particle yield increase (ELISA)” value ([3]; 1 μM inhibitor) was 49%. For the same molecule, the “capsid particle yield increase (ELISA)” value ([3]; 5 μM inhibitor) was 66.5%, the “capsid particle titer increase (ELISA)” value ([3]; 10 μM inhibitor) was 62% and the “lentiviral cp titer increase (p24 ELISA)” value ([4]; 5 μM inhibitor) was 40%. The “lentiviral cp titer increase (p24 ELISA)” value ([4]; 10 μM inhibitor) was 81.5%, the “improvement of rAAV yield by ddPCR” value [5] was “approximately 1.3 fold” and the “improvement of rAAV8 capsid particles by ELISA” value [6] was “about 1.5 fold”. For the same molecule, the “rAAV yield in the cell suspension” value ([7]; 5 μM ruxolitinib, cell suspension) was “about 2×10^13 vg/L cell culture”, the “rAAV yield in the cell suspension” value ([7]; 10 μM ruxolitinib, cell suspension) was “about 2×10^13 vg/L cell culture” and the “increase of the vector genome (vg) in the cell suspension” value ([7]; 10 μM ruxolitinib, cell suspension, vs negative control without inhibitor) was “about 2 fold”. The “increase of the vector genome (vg) in the supernatant” value ([7]; 10 μM ruxolitinib, supernatant, vs negative control without inhibitor) was “about 2.5 fold”.
